From US20170210751A1, “PRMT5 INHIBITORS AND USES THEREOF” (Epizyme, Inc., priority 2014, published 2017)
pEC50: −log10 of the molar value.

These molecules were tested on Symmetric di-Methyl Arginine in Z-138 cells (assay: Z-138 Methylation Assay (In Cell Western for symmetric di-methyl arginine)). Settings: Homo sapiens, 96 hours incubation, symmetric di-methyl arginine normalised to DNA content, read-out: ICW EC50.
Format: cell-based
Excerpt: Z-138 suspension cells were purchased from ATCC (American Type Culture Collection, Manassas, Va.). RPMI/Glutamax medium, penicillin-streptomycin, heat inactivated fetal bovine serum, and D-PBS were purchased from Life Technologies, Grand Island, N.Y., USA. Odyssey blocking buffer, 800CW goat anti-rabbit IgG (H+L) antibody, and Licor Odyssey infrared scanner were purchased from Licor Biosciences, Lincoln, Nebr., USA. Symmetric di-methyl arginine antibody was purchased from EMD Millipore, Billerica, Mass., USA. 16% Paraformaldehyde was purchased from Electron Microscopy Sciences, Hatfield, Pa., USA.
Z-138 suspension cells were maintained in growth medium (RPMI 1640 supplemented with 10% v/v heat inactivated fetal bovine serum and 100 units/mL penicillin-streptomycin) and cultured at 37° C. under 5% CO2.
Cell Treatment, In Cell Western (ICW) for detection of Symmetric di-Methyl Arginine and DNA content.
Z-138 cells were seeded in assay medium at a concentration of 50,000 cells per mL to a 384-well cell culture plate with 50 μL per well. Compound (100 nL) from 384 well source plates was added directly to 384 well cell plate. Plates were incubated at 37° C., 5% CO2 for 96 hours. After four days of incubation, 40 μL of cells from incubated plates were added to poly-D-lysine coated 384 well culture plates (BD Biosciences 356697). Plates were incubated at room temperature for 30 minutes then incubated at 37° C., 5% CO2 for 5 hours. After the incubation, 40 μL per well of 8% paraformaldehyde in PBS (16% paraformaldahyde was diluted to 8% in PBS) was added to each plate and incubated for 30 minutes. Plates were transferred to a Biotek 405 plate washer and washed 5 times with 100 μL per well of wash buffer (IX PBS with 0.1% Triton X-100 (v/v)). Next […] well of Odyssey blocking buffer were added to each plate and incubated 1 hour at room temperature. Blocking buffer was removed and 20 μL per well of primary antibody was added (symmetric di-methyl arginine diluted 1:100 in Odyssey buffer with 0.1% Tween 20 (v/v)) and plates were incubated overnight (16 hours) at 4° C. Plates were washed 5 times with 100 μL per well of wash buffer. Next 20 μL per well of secondary antibody was added (1:200 800CW goat anti-rabbit IgG (H+L) antibody, 1:1000 DRAQ5 (Biostatus limited) in Odyssey buffer with 0.1% Tween 20 (v/v)) and incubated for 1 hour at room temperature. The plates were washed 5 times with 100 μL per well wash buffer then 1 time with 100 μL per well of water. Plates were allowed to dry at room temperature then imaged on the Licor Odyssey machine which measures integrated intensity at 700 nm and 800 nm wavelengths. Both 700 and 800 channels were scanned.
First, the ratio for each well was determined by:
Each plate included fourteen control wells of DMSO only treatment (minimum inhibition) as well as fourteen control wells for maximum inhibition treated with 3 μM of a reference compound (Background wells). The average of the ratio values for each control type was calculated and used to determine the percent inhibition for each test well in the plate. Reference compound was serially diluted three-fold in DMSO for a total of nine test concentrations, beginning at 3 μM. Percent inhibition was determined and IC50 curves were generated using triplicate wells per concentration of compound.

Question: How did the pEC50 turn out when CC(=O)N1CC(Nc2cc(C(=O)NC[C@H](O)CN3CCc4ncccc4C3)ncn2)C1 [Compound 2-9, (S)-6-((1-acetylazetidin-3-yl)amino)-N-(3-(7,8-dihydro-1,6-naphthyridin-6(5H)-yl)-2-hydroxypropyl)pyrimidine-4-carboxamide] was run?
Answer: 6.00 to 7.00

Question: CC(=O)N1CCC(Nc2cc(C(=O)NC[C@H](O)CN3CCc4cccnc4C3)ncn2)CC1 [Compound 2-11, (S)-6-((1-acetylpiperidin-4-yl)amino)-N-(3-(5,6-dihydro-1,7-naphthyridin-7(8H)-yl)-2-hydroxypropyl)pyrimidine-4-carboxamide] was tested. Which pEC50 did it give?
Answer: 6.00 to 7.00

Question: With O=C(NC[C@H](O)CN1CCc2ncccc2C1)c1cc(NC2COC2)ncn1 [Compound 2-12, (S)—N-(3-(7,8-dihydro-1,6-naphthyridin-6(5H)-yl)-2-hydroxypropyl)-6-(oxetan-3-ylamino)pyrimidine-4-carboxamide] as the molecule, how does the pEC50 read?
Answer: < 5.30

Question: CC(=O)N1CC(Nc2cc(C(=O)NC[C@H](O)CN3CCc4cccnc4C3)ncn2)C1 [Compound 2-13] was tested. Which pEC50 did it give?
Answer: 6.00 to 7.00

Question: With CC(=O)N1CCC(Nc2cc(C(=O)NC[C@H](O)CN3CCc4ncccc4C3)ncn2)CC1 [Compound 2-14, (S)-6-((1-acetylpiperidin-4-yl)amino)-N-(3-(7,8-dihydro-1,6-naphthyridin-6(5H)-yl)-2-hydroxypropyl)pyrimidine-4-carboxamide] as the molecule, how does the pEC50 read?
Answer: 6.00 to 7.00

Question: How did the pEC50 turn out when O=C(NC[C@H](O)CN1CCc2cnccc2C1)c1cc(NC2COC2)ncn1 [Compound 2-15] was run?
Answer: < 6.00

Question: How did the pEC50 turn out when CC(=O)N1CC(Nc2cc(C(=O)NC[C@H](O)CN3CCc4cnccc4C3)ncn2)C1 [Compound 2-16] was run?
Answer: < 6.00

Question: CC(=O)N1CCC(Nc2cc(C(=O)NC[C@H](O)CN3CCc4cnccc4C3)ncn2)CC1 [Compound 2-17, (S)-6-((1-acetylpiperidin-4-yl)amino)-N-(3-(3,4-dihydro-2,6-naphthyridin-2(1H)-yl)-2-hydroxypropyl)pyrimidine-4-carboxamide] was tested. Which pEC50 did it give?
Answer: < 6.00

Question: CC(=O)N1CCC(Nc2cc(C(=O)NC[C@H](O)CN3CCc4cnccc4C3)ccn2)CC1 [Compound 2-18] was tested. Which pEC50 did it give?
Answer: 6.00 to 7.00

Question: With CC(=O)N1CCC(Nc2cc(C(=O)NC[C@H](O)CN3CCc4ccncc4C3)ccn2)CC1 [Compound 2-19, (S)-2-((1-acetylpiperidin-4-yl)amino)-N-(3-(3,4-dihydro-2,7-naphthyridin-2(1H)-yl)-2-hydroxypropyl)isonicotinamide] as the molecule, how does the pEC50 read?
Answer: < 6.00

Question: How did the pEC50 turn out when CC(=O)N1CCC(Nc2cc(C(=O)NC[C@H](O)CN3CCc4ncccc4C3)ccn2)CC1 [Compound 2-20, (S)-2-((1-acetylpiperidin-4-yl)amino)-N-(3-(7,8-dihydro-1,6-naphthyridin-6(5H)-yl)-2-hydroxypropyl)isonicotinamide] was run?
Answer: 6.00 to 7.00

Question: CC(=O)N1CCC(Nc2cc(C(=O)NC[C@H](O)CN3CCc4cccnc4C3)ccn2)CC1 [Compound 2-21, (S)-2-((1-acetylpiperidin-4-yl)amino)-N-(3-(5,6-dihydro-1,7-naphthyridin-7(8H)-yl)-2-hydroxypropyl)isonicotinamide] was tested. Which pEC50 did it give?
Answer: 6.00 to 7.00

Question: CC(=O)N1CC(Nc2cc(C(=O)NC[C@H](O)CN3CCc4ccncc4C3)ncn2)C1 [Compound 2-22] was tested. Which pEC50 did it give?
Answer: < 6.00

Question: How did the pEC50 turn out when CC(=O)N1CCC(Nc2cc(C(=O)NC[C@H](O)CN3CCc4ccncc4C3)ncn2)CC1 [Compound 2-23, (S)-6-((1-acetylpiperidin-4-yl)amino)-N-(3-(3,4-dihydro-2,7-naphthyridin-2(1H)-yl)-2-hydroxypropyl)pyrimidine-4-carboxamide] was run?
Answer: < 6.00

Question: With O=C(NC[C@H](O)CN1CCc2ccncc2C1)c1cc(NC2COC2)ncn1 [Compound 2-24] as the molecule, how does the pEC50 read?
Answer: < 6.00

Question: With O=C(COc1cccc2cccnc12)NCC(O)CN1CCc2nc[nH]c2C1 (stereo not shown) [Compound 3-10, N-(2-hydroxy-3-{3H,4H,5H,6H,7H-imidazo[4,5-c]pyridin-5-yl}propyl)-2-(quinolin-8-yloxy)acetamide] as the molecule, how does the pEC50 read?
Answer: < 6.00

Question: CC(=O)N1CC(Nc2cc(C(=O)NC[C@H](O)CN3CCc4[nH]nc(-c5ccccc5)c4C3)ncn2)C1 [Compound 3-11, (S)-6-((1-acetylazetidin-3-yl)amino)-N-(2-hydroxy-3-(3-phenyl-6,7-dihydro-1H-pyrazolo[4,3-c]pyridin-5(4H)-yl)propyl)pyrimidine-4-carboxamide] was tested. Which pEC50 did it give?
Answer: < 6.00

Question: With CC(=O)N1CCC(Nc2cc(C(=O)NC[C@H](O)CN3CCc4[nH]nc(-c5ccccc5)c4C3)ncn2)CC1 [Compound 3-12, (S)-6-((1-acetylpiperidin-4-yl)amino)-N-(2-hydroxy-3-(3-phenyl-6,7-dihydro-1H-pyrazolo[4,3-c]pyridin-5(4H)-yl)propyl)pyrimidine-4-carboxamide] as the molecule, how does the pEC50 read?
Answer: < 6.00

Question: How did the pEC50 turn out when O=C(NC[C@H](O)CN1CCc2[nH]nc(-c3ccccc3)c2C1)c1cc(NC2COC2)ncn1 [Compound 3-17, (S)—N-(2-hydroxy-3-(3-phenyl-6,7-dihydro-1H-pyrazolo[4,3-c]pyridin-5(4H)-yl)propyl)-6-(oxetan-3-ylamino)pyrimidine-4-carboxamide] was run?
Answer: < 6.00

Question: CC(=O)N1CCC(Nc2cc(C(=O)NC[C@H](O)CN3CCc4[nH]ncc4C3)ccn2)CC1 [Compound 3-21] was tested. Which pEC50 did it give?
Answer: < 6.00

Question: How did the pEC50 turn out when CC(=O)N1CCC(Nc2cc(C(=O)NC[C@H](O)CN3CCc4c(ncn4C)C3)ccn2)CC1 [Compound 3-22, (S)-2-((1-acetylpiperidin-4-yl)amino)-N-(2-hydroxy-3-(1-methyl-6,7-dihydro-1H-imidazo[4,5-c]pyridin-5(4H)-yl)propyl)isonicotinamide] was run?
Answer: < 6.00

Question: With CC(=O)N1CC(Nc2cc(C(=O)NC[C@H](O)CN3CCc4[nH]ncc4C3)ncn2)C1 [Compound 3-23] as the molecule, how does the pEC50 read?
Answer: < 6.00

Question: CC(=O)N1CCC(Nc2cc(C(=O)NC[C@H](O)CN3CCc4ncn(C)c4C3)ccn2)CC1 [Compound 3-24, (S)-2-((1-acetylpiperidin-4-yl)amino)-N-(2-hydroxy-3-(3-methyl-6,7-dihydro-3H-imidazo[4,5-c]pyridin-5(4H)-yl)propyl)isonicotinamide] was tested. Which pEC50 did it give?
Answer: < 6.00

Question: How did the pEC50 turn out when Cn1cnc2c1CN(C[C@@H](O)CNC(=O)c1cc(NC3COC3)ncn1)CC2 [Compound 3-26, (S)—N-(2-hydroxy-3-(3-methyl-6,7-dihydro-3H-imidazo[4,5-c]pyridin-5(4H)-yl)propyl)-6-(oxetan-3-ylamino)pyrimidine-4-carboxamide] was run?
Answer: < 6.00

Question: Cn1cc2c(n1)CCN(C[C@@H](O)CNC(=O)c1cc(NC3COC3)ncn1)C2 [Compound 3-27] was tested. Which pEC50 did it give?
Answer: < 6.00

Question: With Cn1cnc2c1CCN(C[C@@H](O)CNC(=O)c1cc(NC3COC3)ncn1)C2 [Compound 3-28] as the molecule, how does the pEC50 read?
Answer: < 6.00

Question: CC(=O)N1CC(Nc2cc(C(=O)NC[C@H](O)CN3CCc4[nH]cnc4C3)ncn2)C1 [Compound 3-33, (S)-6-((1-acetylazetidin-3-yl)amino)-N-(3-(6,7-dihydro-1H-imidazo[4,5-c]pyridin-5(4H)-yl)-2-hydroxypropyl)pyrimidine-4-carboxamide] was tested. Which pEC50 did it give?
Answer: < 6.00

Question: How did the pEC50 turn out when CC(=O)N1CCC(Nc2cc(C(=O)NC[C@H](O)CN3CCc4[nH]cnc4C3)ncn2)CC1 [Compound 3-34, (S)-6-((1-acetylpiperidin-4-yl)amino)-N-(3-(6,7-dihydro-1H-imidazo[4,5-c]pyridin-5(4H)-yl)-2-hydroxypropyl)pyrimidine-4-carboxamide] was run?
Answer: < 6.00

Question: CC(=O)N1CCC(Nc2cc(C(=O)NC[C@H](O)CN3CCc4c(ncn4C)C3)ncn2)CC1 [Compound 3-35, (S)-6-((1-acetylpiperidin-4-yl)amino)-N-(2-hydroxy-3-(1-methyl-6,7-dihydro-1H-imidazo[4,5-c]pyridin-5(4H)-yl)propyl)pyrimidine-4-carboxamide] was tested. Which pEC50 did it give?
Answer: < 6.00

Question: CC(=O)N1CCC(Nc2cc(C(=O)NC[C@H](O)CN3CCc4[nH]cnc4C3)ccn2)CC1 [Compound 3-36, (S)-2-((1-acetylpiperidin-4-yl)amino)-N-(3-(6,7-dihydro-1H-imidazo[4,5-c]pyridin-5(4H)-yl)-2-hydroxypropyl)isonicotinamide] was tested. Which pEC50 did it give?
Answer: < 6.00

Question: With O=C(NC[C@H](O)CN1CCc2[nH]cnc2C1)c1cc(NC2COC2)ncn1 [Compound 3-38, (S)—N-(3-(6,7-dihydro-1H-imidazo[4,5-c]pyridin-5(4H)-yl)-2-hydroxypropyl)-6-(oxetan-3-ylamino)pyrimidine-4-carboxamide] as the molecule, how does the pEC50 read?
Answer: < 6.00
